Data on 23 compounds can be found in patent US20240279220A1, “INDOLE COMPOUNDS AND METHODS OF USE” (Genzyme Corporation, priority 2021, published 2024).

Structures are written as SMILES.

In this experiment the test system is NBD1/3D. Description: Aggregation analysis using differential static light scattering (DSLS), NBD1 thermal stability. Type of experiment: binding, Human. The following applies: ΔTagg versus DMSO control; compound at 100 μM. The essentials: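 Purified NBD1 at 0.2 mg/ml in S200 buffer (pH 7.6, 2 mM ATP, 5 mM MgCl2, 1% glycerol) was heated with compound at 1 °C/min to 70 °C. Tagg taken from the light-scattering curve inflection point; ΔTagg = compound Tagg minus mean DMSO control Tagg.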

Turning to `CC(C#N)(c1cccc(CCC(=O)O)c1)c1c[nH]c(-c2cc(Oc3c(F)cc4[nH]ccc4c3CC(F)F)ccc2F)n1` (centres unmarked) [Example 55, 3-(3-(1-cyano-1-(2-(5-((4-(2,2-difluoroethyl)-6-fluoro-1H-indol-5-yl)oxy)-2-fluorophenyl)-1H-imidazol-4-yl)ethyl)phenyl)propanoic acid], the “DSLS NBD1/3D Human Stability delta-T (° C.) @ 100 (μM)” value (“DSLS NBD1/3D Human Stability delta-T” below) is recorded as “B (B: 5-10° C.)”. As for `Cc1c(Oc2ccc(F)c(-c3ncc(C(C)(C#N)c4cccc(CCC(=O)O)c4)[nH]3)c2)c(F)c(F)c2[nH]ccc12` (centres unmarked) [Example 56, 3-(3-(1-cyano-1-(2-(5-((6,7-difluoro-4-methyl-1H-indol-5-yl)oxy)-2-fluorophenyl)-1H-imidazol-5-yl)ethyl)phenyl)propanoic acid], the entry is “B (B: 5-10° C.)”. In the case of `Cc1c(Oc2ccc(F)c(-c3ncc(C(C)(C#N)c4cccc(CCC(=O)O)c4)[nH]3)c2)c(F)c(F)c2[nH]cc(Cl)c12` (centres unmarked) [Example 57, 3-(3-(1-(2-(5-((3-chloro-6,7-difluoro-4-methyl-1H-indol-5-yl)oxy)-2-fluorophenyl)-1H-imidazol-5-yl)-1-cyanoethyl)phenyl)propanoic acid] it was “B (B: 5-10° C.)”; in that of `CC(C#N)(c1cccc(CCC(=O)O)c1)c1c[nH]c(-c2cc(Oc3c(F)cc4[nH]ccc4c3F)ccc2F)n1` (centres unmarked) [Example 58, 3-(3-(1-cyano-1-(2-(5-((4,6-difluoro-1H-indol-5-yl)oxy)-2-fluorophenyl)-1H-imidazol-4-yl)ethyl)phenyl)propanoic acid], “B (B: 5-10° C.)”; in that of `[2H]C([2H])([2H])C(C#N)(c1cccc(CCC(=O)O)c1)c1cnc(-c2cc(Oc3c(F)cc4[nH]ccc4c3C)ccc2F)[nH]1` (centres unmarked) [Example 59, 3-(3-(1-cyano-1-(2-(2-fluoro-5-((6-fluoro-4-methyl-1H-indol-5-yl)oxy)phenyl)-1H-imidazol-5-yl)ethyl-2,2,2-d3)phenyl)propanoic acid], “B (B: 5-10° C.)”.

With `[2H]C([2H])([2H])C(C#N)(c1cccc(CCC(=O)O)c1)c1cnc(-c2cc(Oc3c(F)cc4[nH]ccc4c3F)ccc2F)[nH]1` (centres unmarked) [Example 60, 3-(3-(1-cyano-1-(2-(5-((4,6-difluoro-1H-indol-5-yl)oxy)-2-fluorophenyl)-1H-imidazol-5-yl)ethyl-2,2,2-d3)phenyl)propanoic acid], the “DSLS NBD1/3D Human Stability delta-T” value is “B (B: 5-10° C.)”. As for `CC(C#N)(c1cccc(CCC(=O)O)c1)c1cnc(-c2cc(Oc3nc4cc[nH]c4cc3F)ccc2F)[nH]1` (centres unmarked) [Example 61, 3-(3-(1-cyano-1-(2-(2-fluoro-5-((6-fluoro-1H-pyrrolo[3,2-b]pyridin-5-yl)oxy)phenyl)-1H-imidazol-5-yl)ethyl)phenyl)propanoic acid], the entry is “B (B: 5-10° C.)”. In the case of `CC(C#N)(c1cccc(CCC(=O)O)c1)c1cnc(-c2cc(Oc3c(F)cc4[nH]cnc4c3F)ccc2F)[nH]1` (centres unmarked) [Example 62, 3-(3-(1-cyano-1-(2-(5-((4,6-difluoro-1H-benzo[d]imidazol-5-yl)oxy)-2-fluorophenyl)-1H-imidazol-5-yl)ethyl)phenyl)propanoic acid] it was “B (B: 5-10° C.)”; in that of `[2H]C([2H])([2H])C(C#N)(c1cc(F)cc(CCC(=O)O)c1)c1cnc(-c2cc(Oc3c(F)c(F)c4[nH]ccc4c3C)ccc2F)[nH]1` (centres unmarked) [Example 63, 3-(3-(1-cyano-1-(2-(5-((6,7-difluoro-4-methyl-1H-indol-5-yl)oxy)-2-fluorophenyl)-1H-imidazol-5-yl)ethyl-2,2,2-d3)-5-fluorophenyl)propanoic acid], “B (B: 5-10° C.)”; in that of `CC(CO)(c1cccc(CCC(=O)O)c1)c1cnc(-c2cc(Oc3c(F)cc4[nH]ccc4c3S(C)(=O)=O)ccc2F)[nH]1` (centres unmarked) [Example 68, 3-(3-(2-(2-(2-Fluoro-5-((6-fluoro-4-(methylsulfonyl)-1H-indol-5-yl)oxy)phenyl)-1H-imidazol-5-yl)-1-hydroxypropan-2-yl)phenyl)propanoic acid], “A (A: T ≥ 10° C.)”.

As to `CC(CO)(c1cccc(CCC(=O)O)c1)c1c[nH]c(-c2cc(Oc3c(F)c(F)c4[nH]ccc4c3S(C)(=O)=O)ccc2F)n1` (centres unmarked) [Example 69, 3-(3-(2-(2-(5-((6,7-difluoro-4-(methylsulfonyl)-1H-indol-5-yl)oxy)-2-fluorophenyl)-1H-imidazol-5-yl)-1-hydroxypropan-2-yl)phenyl)propanoic acid], the “DSLS NBD1/3D Human Stability delta-T” value was “A (A: T ≥ 10° C.)”. In the case of `CO[C@]1(C)C[C@@](c2cccc(CCC(=O)O)c2)(c2cnc(-c3cc(Oc4c(F)c(F)c5[nH]ccc5c4S(C)(=O)=O)ccc3F)[nH]2)C1` [Example 70, rac-3-(3-((1r,3r)-1-(2-(5-((6,7-Difluoro-4-(methylsulfonyl)-1H-indol-5-yl)oxy)-2-fluorophenyl)-1H-imidazol-5-yl)-3-methoxy-3-methylcyclobutyl)phenyl)propanoic acid] it was “A (A: T ≥ 10° C.)”; in that of `CO[C@]1(C)C[C@@](c2cccc(CCC(=O)O)c2)(c2c[nH]c(-c3cc(Oc4c(F)cc5[nH]ccc5c4S(C)(=O)=O)ccc3F)n2)C1` [Example 71, 3-(3-((1r,3r)-1-(2-(2-fluoro-5-((6-fluoro-4-(methylsulfonyl)-1H-indol-5-yl)oxy)phenyl)-1H-imidazol-4-yl)-3-methoxy-3-methylcyclobutyl)phenyl)propanoic acid], “A (A: T ≥ 10° C.)”; in that of `CO[C@]1(C)C[C@@](c2cc(F)cc(CCC(=O)O)c2)(c2c[nH]c(-c3cc(Oc4c(F)cc5[nH]ccc5c4S(C)(=O)=O)ccc3F)n2)C1` [Example 72, 3-(3-Fluoro-5-((1r,3r)-1-(2-(2-fluoro-5-((6-fluoro-4-(methylsulfonyl)-1H-indol-5-yl)oxy)phenyl)-1H-imidazol-5-yl)-3-methoxy-3-methylcyclobutyl)phenyl)propanoic acid], “A (A: T ≥ 10° C.)”.

Turning to `CO[C@]1(C)C[C@](c2cc(F)cc(CCC(=O)O)c2)(c2cnc(-c3cc(Oc4c(F)cc5[nH]ccc5c4S(C)(=O)=O)ccc3F)[nH]2)C1` [Example 73, 3-(3-fluoro-5-((1s,3s)-1-(2-(2-fluoro-5-((6-fluoro-4-(methylsulfonyl)-1H-indol-5-yl)oxy)phenyl)-1H-imidazol-5-yl)-3-methoxy-3-methylcyclobutyl)-phenyl)propanoic acid], the “DSLS NBD1/3D Human Stability delta-T” value is on record as “A (A: T ≥ 10° C.)”. Consider `CC(CC#N)(c1cccc(CCC(=O)O)c1)c1cnc(-c2cc(Oc3c(F)cc4[nH]ccc4c3S(C)(=O)=O)ccc2F)[nH]1` (centres unmarked) [Example 76, 3-(3-(1-Cyano-2-(2-(2-fluoro-5-((6-fluoro-4-(methylsulfonyl)-1H-indol-5-yl)oxy)phenyl)-1H-imidazol-5-yl)propan-2-yl)phenyl)propanoic acid], for which the “DSLS NBD1/3D Human Stability delta-T” value was “A (A: T ≥ 10° C.)”. As for `CC(CC#N)(c1cccc(CCC(=O)O)c1)c1cnc(-c2cc(Oc3c(F)cc4[nH]ccc4c3F)ccc2F)[nH]1` (centres unmarked) [Example 77, 3-(3-(1-cyano-2-(2-(5-((4,6-difluoro-1H-indol-5-yl)oxy)-2-fluorophenyl)-1H-imidazol-5-yl)propan-2-yl)phenyl)propanoic acid], the entry is “B (B: 5-10° C.)”; as for `CS(=O)(=O)c1c(Oc2ccc(F)c(-c3ncc(C4(c5cccc(CCC(=O)O)c5)CC(F)(F)C4)[nH]3)c2)c(F)cc2[nH]ccc12` [Example 78, 3-(3-(3,3-Difluoro-1-(2-(2-fluoro-5-((6-fluoro-4-(methylsulfonyl)-1H-indol-5-yl)oxy)phenyl)-1H-imidazol-5-yl)cyclobutyl)phenyl)propanoic acid], “A (A: T ≥ 10° C.)”. In the case of `CS(=O)(=O)c1c(Oc2ccc(F)c(-c3nc(C4(c5cccc(CCC(=O)O)c5)CC(F)(F)C4)cs3)c2)c(F)cc2[nH]ccc12` [Example 79, 3-(3-(3,3-Difluoro-1-(2-(2-fluoro-5-((6-fluoro-4-(methylsulfonyl)-1H-indol-5-yl)oxy)phenyl)thiazol-4-yl)cyclobutyl)phenyl)propanoic acid] it was “B (B: 5-10° C.)”; in that of `CS(=O)(=O)c1c(Oc2ccc(F)c(-c3nc(C4(c5cccc(CCC(=O)O)c5)CC4)co3)c2)c(F)cc2[nH]ccc12` [Example 81, 3-(3-(1-(2-(2-Fluoro-5-((6-fluoro-4-(methylsulfonyl)-1H-indol-5-yl)oxy)phenyl)oxazol-4-yl)cyclopropyl)phenyl)propanoic acid], “B (B: 5-10° C.)”; in that of `O=C(O)CCc1cccc(C2(c3cnc(-c4cc(Oc5c(F)cc6[nH]ccc6c5SC(F)(F)F)ccc4F)[nH]3)CCOCC2)c1` [Example 82, 3-(3-(4-(2-(2-Fluoro-5-((6-fluoro-4-((trifluoromethyl)thio)-1H-indol-5-yl)oxy)phenyl)-1H-imidazol-5-yl)tetrahydro-2H-pyran-4-yl)phenyl)propanoic acid], “B (B: 5-10° C.)”. In the case of `O=C(O)CCc1cccc(C(O)c2cnc(-c3cccc(Oc4c(F)cc5[nH]ccc5c4-c4nccs4)c3)[nH]2)c1` (centres unmarked) [Example 87, 3-(3-((2-(3-((6-Fluoro-4-(thiazol-2-yl)-1H-indol-5-yl)oxy)phenyl)-1H-imidazol-5-yl)(hydroxy)methyl)phenyl)propanoic acid] it was “B (B: 5-10° C.)”. Consider `CC(O)(c1cccc(CCC(=O)O)c1)c1csc(-c2cc(Oc3c(F)cc4[nH]ccc4c3S(C)(=O)=O)ccc2F)n1` (centres unmarked) [Example 88, 3-(3-(1-(2-(2-Fluoro-5-((6-fluoro-4-(methylsulfonyl)-1H-indol-5-yl)oxy)phenyl)thiazol-4-yl)-1-hydroxyethyl)phenyl)propanoic acid], for which the “DSLS NBD1/3D Human Stability delta-T” value is on record as “B (B: 5-10° C.)”.
